One assay deals with CD-HFD fed C57BL/6 mice. Description: CD-HFD mouse model of NASH and NASH-triggered HCC. Type of assay: in vivo. The conditions noted are these: for development of NASH: MRI analysis and histological analysis; for Histopathological signs of NASH (e.g. ballooned hepatocytes): H/E stains of liver; for Aberrant hepatic lipid metabolism and b-Oxidation: Real time PCR analysis for gene expression in the liver. The text has this: Indeed that approach enabled the inventors to study a chronic model of NASH in the context of metabolic syndrome, triggering subsequent HCC in C57BL/6 mice, in the absence of chemical carcinogens or genetic mutations predisposing to NASH or HCC development. CD-HFD fed mice display several long term pathologies observed in human patients: abdominal obesity, overweight, insulin resistance, liver damage, production of reactive oxygen species (ROS) fibrosis, hepatic mitochondrial damage, dyslipidemia and NASH. Moreover, HCC developed 12 months post CD-HFD start and resembled histologically, genetically and morphologically human HCC (FIG. 1). Cholesterol Diet—High Fat Diet (CD-HFD) in mice recapitulates human NASH and NASH triggered HCC pathology. (FIG. 1A) Weight development in male normal diet fed (ND) and CD-HFD fed C57BL/6 mice. (FIG. 1B) Intraperitoneal Glucose tolerance test performed with 6-month-old male ND and CD-HFD C57BL/6 mice. (FIG. 1C) Quantification of serum aminotransferase (ALT) levels in male C57BL/6 mice reflecting liver damage. (FIG. 1D) MRI analyses on livers of 6-month-old ND and CD-HFD C57BL/6 mice. T1 (fast low-angle shot [FLASH]) OUT phase: dark color indicative of steatosis. T2 TurboRare visualizes increase in subcutaneous and abdominal fat and hepatic lipid accumulation (bright regions) in CD-HFD mice. (FIG. 1E) Macroscopy and histopathology of livers from 12-month-old ND, HFD, or CD-HFD C57BL/6 mice, with arrowhead pointing towards HCC. Scale bar: 5 mm. T: Tumor. NT: Non-Tumor. ***P=0.001. (F) Representative H&E staining of 12-month-old CD-HFD C57BL/6 livers and human livers illustrating NASH. Accumulation of Mallory Denk bodies (red arrowhead), ballooned hepatocytes (brown arrowhead), and satellitosis (blue arrowhead) is similar to human NASH pathology (right image). Scale bar: 50 μm.
(§1) Aspirin/Clopidrogrel (Asp/Clop), a thrombocyte aggregation inhibitor, treatment reduces the capacity of platelets aggregate and prevents NASH and aberrant hepatic lipid metabolism (FIG. 5). (FIG. 5A) Asprin/Clopidrogrel treatment reduces the number of platelets in the liver (White bars: ND; Black bars: CD-HFD; Green bars: CD-HFD treated with Asp/Clop). […] (FIG. 5E) Liver to body weight ratio is rescued upon Asp/Clop treatment at 12 months of age. (FIG. 5F) Liver damage as measured by ALT levels in serum is prevented in Asp/Clop treated mice. (FIG. 5G) Triglycerides are reduced in serum of Asp/Clop treated mice at 12 months of age. (FIG. 5H) Serum cholesterol is reduced in Asp/Clop treated mice at 6 and 12 months, (FIG. 5I) Aberrant hepatic lipid metabolism and b-Oxidation is rescued in Asp/Clop treated mice—as analyzed by Real time PCR analysis for gene expression in the liver. Stars indicate significance. […] (FIG. 5J) Lipid deposition in the liver indicated by a dark staining in the T1 (FLASH) OUT phase is not detected—as in the CD-HFD. Still at the same time abdominal and subcutaneous fat are visible in Asp/Clop treated mice. (FIG. 5K) Histopathological signs of NASH (e.g. ballooned hepatocytes—see also stars) are absent in Asp/Clop treated mice.
For orientation: Real-time PCR tracks product formation cycle by cycle.

In a further assay the test system is platelets. Description: ex vivo activation / aggregation assay on platelets taken from peripheral blood. Type of assay: cell-based. The conditions noted are these: platelets taken from peripheral blood of treated CD-HFD mice.
From the text: By using different dilution curves of CRP or Thr a reproducible and consistent analysis of the platelet-response rate was visible.
as §1

As to `CC1=C(CC(=O)O)c2cc(F)ccc2/C1=C\c1ccc([S+](C)[O-])cc1` (centres unmarked) [sulindac, Sulindac], in the assay with CD-HFD fed C57BL/6 mice (CD-HFD fed mice), the “Liver damage as measured by ALT levels in serum” value is recorded as “not prevented”, the development of obesity result is on record as “do develop obesity”, the “insulin resistance (intraperitoneal glucose tolerance test)” value is on record as “insulin resistant as CD-HFD fed mice” and the “development of NASH” value was “does not prevent the development of NASH”. For the same molecule, in the assay on CD-HFD fed C57BL/6 mice, the “Histopathological signs of NASH (e.g. ballooned hepatocytes)” value was “present”; the “Aberrant hepatic lipid metabolism and b-Oxidation” value is recorded as “not rescued”. Further, in the assay on CD-HFD fed C57BL/6 mice (MRI), the “Lipid deposition in the liver (dark staining in the T1 (FLASH) OUT phase)” value is “detected”; the “abdominal and subcutaneous fat” value is given as “visible”. Besides, the Triglycerides in serum result with CD-HFD fed C57BL/6 mice (at 6 or 12 months of age) is listed as “not significantly reduced”. The “Liver to body weight ratio” value in the assay with CD-HFD fed C57BL/6 mice (at 12 months of age) is “not rescued”.
Regarding `CCCSc1nc(N[C@@H]2C[C@H]2c2ccc(F)c(F)c2)c2nnn([C@@H]3C[C@H](OCCO)[C@@H](O)[C@H]3O)c2n1` [ticagrelor, Ticagrelor], in the assay on CD-HFD fed C57BL/6 mice (CD-HFD fed mice), the “Liver damage as measured by ALT levels in serum” value was “significantly reduced”; the development of obesity result was “do develop obesity”; the “number of HCC (HCC incidence)” value is “No HCC”; the “development of NASH” value was “blocks NASH and HCC development”. Also, in the assay with CD-HFD fed C57BL/6 mice, the “Histopathological signs of NASH (e.g. ballooned hepatocytes)” value is given as “not present”; the “Aberrant hepatic lipid metabolism and b-Oxidation” value is “rescued”. For the same molecule, in the assay on CD-HFD fed C57BL/6 mice (at 6 and 12 months), the Serum cholesterol result is “significantly reduced”. Besides, the Triglycerides in serum result in the assay on CD-HFD fed C57BL/6 mice (at 12 months of age) is reported as “reduced by trend”. Moreover, in the assay on platelets, the “Activation status of platelets (ex vivo assay)” value is reported as “significantly reduced” and the “Aggregation capacity status of platelets (ex vivo aggregation assay)” value was “significantly reduced”.

The values above are taken from patent US11806361B2, “Treatments of non-alcoholic steatohepatitis (NASH)” (DEUTSCHES KREBSFORSCHUNGSZENTRUM STIFTUNG DES ÖFFENTLICHEN …, priority 2016, dated 2023).
